Laboratory results from patent US10022415B2, “External composition for skin containing an enzyme-treated saponin fraction derived from the root of Camellia sinensis” (AMOREPACIFIC CORPORATION, priority 2014, dated 2018).

Tests used:
[1] = test system: Tyrosinase; assay: Tyrosinase hinderance effect; assay type: biochemical, Mushroom; settings: 37° C., 10 minutes, absorbance 475 nm; concentration not given
Experimental: Tyrosinase enzyme is that extracted from Mushroom and used the product of SIGMA Company. At first, tyrosine being the substrate was dissolved in the distilled water to make 0.3 mg/ml of solution and 1.0 ml of each solution was put in the tube, and then, 1.0 ml of potassium-phosphate buffer solution (0.1 mol concentration, pH 6.8) and 0.7 ml of the distilled water were added.
Each sample liquid, 0.2 ml, which was prepared by mixing the enzyme-treated saponin fraction derived from the root of camellia sinensis of the above Example 1 of the present invention in ethanol solution in the proper concentration was put in the reaction liquid and then was reacted in 37° C. incubator for 10 minutes. At this time, the control was prepared by adding only 0.2 ml of solution, instead of each of sample liquid, ascorbic acid was used as the positive control. 0.1 ml of 2500 units/ml tyrosinase solution was added to the reaction liquid and reacted in 37° C. incubator for 10 minutes. The tube with the reaction liquid was put in the ice water to stop the reaction by quenching and the absorbance at the wavelength of 475 nm was determined with the photoelectric spectrophotometer, and then the result was represented in the below Table 21. Each of tyrosinase hinderance effect was calculated by the below mathematical formula 5.

[2] = target: T1, elastase (Sus scrofa, UniProt P00772); assay: Inhibition of elastase activity; assay type: biochemical; settings: EGCG 250 μM as positive control; 25° C., 15 minutes, absorbance 415 nm
T1 construct: purchased Sigma Aldrich E0127
T1 sequence (P00772 27-266): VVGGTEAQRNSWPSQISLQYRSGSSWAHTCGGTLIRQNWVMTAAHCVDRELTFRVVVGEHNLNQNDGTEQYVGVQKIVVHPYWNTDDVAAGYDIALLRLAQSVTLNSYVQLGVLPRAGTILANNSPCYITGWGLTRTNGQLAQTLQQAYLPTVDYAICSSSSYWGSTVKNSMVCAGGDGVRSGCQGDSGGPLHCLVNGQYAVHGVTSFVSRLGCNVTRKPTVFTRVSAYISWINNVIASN
Experimental: An ability hindering elastase activity of the enzyme-treated saponin fraction derived from the root of Camellia sinensis was determined in comparison with EGCG. The elastase and substrate as used were commercially purchased from Sigma Aldrich in […]0127), and the saponin fraction was used as the enzyme-treated saponin fraction derived from the root of Camellia sinensis roots as obtained from Example 1. 50 μL of Test material as represented in the below Table 1 and 20 μg/mL elastase·50 μL of solution of type III were mixed with that prepared with […] Tris-HCl buffer (pH 8.0) in 96-well plate. 250 μM of EGCG was used as a positive control, and non-treated group as a negative control used the distilled water. […] After completing the reaction, the absorption at the wavelength of 415 nm was determined. […] A: No addition of the experimental sample, Absorbance at the wavelength of 415 nm with the addition of enzyme B: No addition of the experimental sample, Absorbance at the wavelength of 415 nm without the addition of enzyme C: Addition of the experimental sample, Absorbance at the wavelength of 415 nm with the addition of enzyme D: Addition of the experimental sample, Absorbance at the wavelength of 415 nm without the addition of enzyme

[3] = test system: B16/F10 melanoma cell; assay: Inhibition of melanin generation in B16/F10 melanoma cell; assay type: cell-based; settings: sample comprising 0.001 wt % of test material, cultured 3 days
Experimental: The sample comprising 0.001 wt % of the saponin fraction derived from the root of camellia sinensis of the above Example 1 and kojic acid, respectively, as the test material, was added to the culture of B16/F10 melanoma cell (Korean cell strain bank) at the constant concentration and cultured for 3 days, washed with PBS, dissolved with 1N NaOH and the absorbance was determined at 405 nm. At this time, the cell added no test material was considered as the control and the degree for hindering the melanin generation of each test material was determined by comparing the contents of melanin in the control. The inhibition rate of melanin generation was calculated according to mathematical formula 6 as below and its result was represented in Table 22.

[4] = target: T2, 5α-reductase (Homo sapiens, UniProt P31213); assay: Inhibition of 5α-reductase activity, [14C]testosterone to DHT in HEK293-5αR2 cell; assay type: cell-based; settings: 2 hours, negative control 48.0
T2 construct: 3xFLAG; expressed in transfected cells; host or cells: HEK293
T2 sequence (P31213 1-254): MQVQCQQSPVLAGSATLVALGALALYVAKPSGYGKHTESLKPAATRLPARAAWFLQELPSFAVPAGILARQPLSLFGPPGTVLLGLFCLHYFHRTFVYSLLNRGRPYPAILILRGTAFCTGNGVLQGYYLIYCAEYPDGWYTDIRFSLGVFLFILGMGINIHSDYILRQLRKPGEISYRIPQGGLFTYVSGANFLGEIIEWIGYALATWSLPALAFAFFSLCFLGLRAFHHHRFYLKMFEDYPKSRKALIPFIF
Experimental: In order to identify the effect for inhibiting 5α-reductase activity, a ratio of [^14C]testosterone changed into [^14C]dihydrotestosterone (DHT) in HEK293-5αR2 cell was determined. […] The next day, new medium with the enzyme substrate and inhibitor was changed. 0.05 μCi [^14C]testosterone (Amersham Pharmacia biotech, UK) as the substrate of the medium was used.
Thereafter, the culture media was collected and steroid was extracted with 800 μl of ethylacetate and then, after separating the organic solvent layer of the top and drying it, the remaining residue was dissolved with 50 μl of ethylacetate and developed it by using ethylacetate-hexane (1:1) as a solvent on Silica plastic sheet kieselgel 60 F254.

[5] = test system: collagenase (MMP-1); assay: Collagenase (MMP-1) generation in human fibroblast, ELISA; assay type: cell-based; settings: saponin fraction 30 μg/ml for 24 hours, non-treated group = 100
Experimental: Fibroblast of a human was placed in 96-well plate (96-well microtiter plate) with Dulbecco's Modified Eagle's Media (DMEM) containing 2.5% fetal bovine serum to be 5,000 cells/well, and was cultured at 5% CO2, at the temperature of 37° C. of incubator to grow to about 70˜80% confluency. The saponin fraction derived from the root of Camellia sinensis of the above Example 1 was treated for 24 hours in a concentration of 30 μg/ml, and then the cell culture was collected.
The degree of the collagenase generation for the cell culture collected by using the commercially available collagenase determination Apparatus (AmershamPharmacia Corporation in U.S.A., Catalog #: RPN 2610) was determined. At first, the collected cell culture was placed in 96-well plate evenly covered with the first collagenase antibody and antigen-antibody reaction was performed in thermostat container for three hours. […]
The absorbance of 96-well plate representing yellow color was determined by using Absorptiometer at 405 nm, the degree of collagenase synthesis was calculated by the below Mathematical formula 2, and the result was shown in Table 2 as below. In this case, the absorbance for the reaction of the cell culture collected from the group without treating with the composition was used as the control.

[6] = test system: procollagen type I; assay: Promotion of collagen biosynthesis in fibroblast, procollagen type I ELISA; assay type: cell-based; settings: 10 ng/ml, 24 hours, non-treated group = 100
Experimental: In order to investigate the promoting effect of the collagen biosynthesis, the enzyme-treated saponin fraction derived from the root of camellia sinensis of the present invention was determined in comparison with TGF-β. At first, fibroblast was seeded as 10^5 cells per a well in 24-well plate and cultured until growing to about 90% confluency. After incubating it with non-serum DMEM medium for 24 hours, it was treated with 10 ng/ml of the saponin fraction derived from the root of camellia sinensis of the above Example 1 and TGF-β dissolved in the non-serum medium, respectively and incubated in CO2 incubator for 24 hours. The supernatant of them was taken and it was examined as to whether procollagen was increased or not by using procollagen type I ELISA kit. The result is represented in Table 8, and the ability for synthesizing the collagen was compared by considering that the non-treated group was 100.

In the case of O=C1O[C@H]([C@@H](O)CO)C(O)=C1O [Ascorbic acid], the “Tyrosnase hinderance rate (%)” value [1] was 52%.
O=C(O[C@@H]1Cc2c(O)cc(O)cc2O[C@@H]1c1cc(O)c(O)c(O)c1)c1cc(O)c(O)c(O)c1 [EGCG] was tested, and the “Degree of the inhibiton (%) of elastase activity” value [2] was 65%.
In the case of O=c1cc(CO)occ1O [Kojic acid], the “Inhibition rate of melanin generation (%)” value [3] was 53%.
In the case of CC(C)(C)NC(=O)[C@H]1CC[C@H]2[C@@H]3CC[C@H]4NC(=O)C=C[C@]4(C)[C@H]3CC[C@]12C [Positive control, finasteride], the “Conversion rate (%) of testosterone into dihydrotestosterone” value [4] was 27.6%.
In the case of CC1=C(/C=C/C(C)=C/C=C/C(C)=C/C(=O)O)C(C)(C)CCC1 [Retinoic acid], the “Degree of the expression (%) of collagenase” value [5] was 75%.
For “TGF-β: comparison substance for collagen biosynthesis”, the “Ability for synthesizing collagen (%)” value [6] was 183.5%.
